Results on 1 molecule are retold here after patent publication US20220401564A1 (DANA-FARBER CANCER INSTITUTE, INC., priority 2019, published 2022).

In this experiment the target is T1, HDAC6 (Homo sapiens, UniProt Q9UBN7).
T1 sequence (Q9UBN7 1-1215): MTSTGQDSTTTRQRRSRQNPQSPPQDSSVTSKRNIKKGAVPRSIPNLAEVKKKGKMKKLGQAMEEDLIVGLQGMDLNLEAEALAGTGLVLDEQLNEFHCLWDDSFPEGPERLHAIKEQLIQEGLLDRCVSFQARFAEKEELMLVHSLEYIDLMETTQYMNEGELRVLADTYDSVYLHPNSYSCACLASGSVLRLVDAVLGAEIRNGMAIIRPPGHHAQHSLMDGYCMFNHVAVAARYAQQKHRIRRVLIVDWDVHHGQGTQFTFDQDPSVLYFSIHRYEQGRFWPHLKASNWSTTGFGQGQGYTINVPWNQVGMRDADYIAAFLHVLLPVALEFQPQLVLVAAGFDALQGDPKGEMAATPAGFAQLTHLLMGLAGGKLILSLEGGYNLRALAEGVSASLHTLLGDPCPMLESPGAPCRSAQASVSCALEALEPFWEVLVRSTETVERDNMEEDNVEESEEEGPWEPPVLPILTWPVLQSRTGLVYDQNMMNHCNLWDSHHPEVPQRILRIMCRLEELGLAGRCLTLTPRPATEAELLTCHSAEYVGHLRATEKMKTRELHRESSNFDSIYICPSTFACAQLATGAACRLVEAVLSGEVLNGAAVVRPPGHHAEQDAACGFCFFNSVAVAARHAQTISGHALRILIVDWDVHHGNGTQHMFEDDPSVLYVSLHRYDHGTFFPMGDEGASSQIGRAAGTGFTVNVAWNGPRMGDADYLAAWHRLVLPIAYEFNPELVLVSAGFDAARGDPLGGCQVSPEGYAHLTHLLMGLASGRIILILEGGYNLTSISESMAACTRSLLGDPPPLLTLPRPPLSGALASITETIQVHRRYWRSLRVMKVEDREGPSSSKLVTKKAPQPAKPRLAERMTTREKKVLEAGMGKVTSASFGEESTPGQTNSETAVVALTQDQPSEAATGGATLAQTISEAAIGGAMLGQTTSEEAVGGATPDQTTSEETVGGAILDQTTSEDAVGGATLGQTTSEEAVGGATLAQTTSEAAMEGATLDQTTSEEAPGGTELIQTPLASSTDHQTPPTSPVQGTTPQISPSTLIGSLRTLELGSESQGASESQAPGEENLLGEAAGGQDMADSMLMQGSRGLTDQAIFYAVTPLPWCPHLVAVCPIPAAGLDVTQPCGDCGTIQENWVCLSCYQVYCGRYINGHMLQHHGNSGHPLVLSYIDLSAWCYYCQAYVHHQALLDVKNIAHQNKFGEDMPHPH
The experiment in a line: HDAC enzymatic assay (Reaction Biology), fluorogenic substrate. Format: biochemical. Also on record: purchased Reaction Biology. On the procedure: Compounds 2 and 9 were tested in an enzymatic assay from Reaction Biology® against HDAC isoforms.
Base Reaction buffer: 50 mM Tris-HCl, pH8.0, 137 mM NaCl, 2.7 mM KCl, and 1 mM MgCl2. Add fresh: 1 mg/ml BSA, 1% DMSO
Fluorogenic HDAC General Substrate (HDAC1, HDAC2, HDAC3, HDAC6, HDAC10, and HDAC11): 50 μM, Arg-His-Lys-Lys(Ac)-AMC
1. Delivered 2X enzyme in wells of reaction plate except in the control wells and added buffer to control wells. 2. Delivered compounds in 100% DMSO into the enzyme mixture by Acoustic technology (Echo550; nanoliter range). Spin down and pre-incubation. 3. Delivered 2X Substrate Mixture (Fluorogenic HDAC Substrate and co-factor if applicable) in all reaction wells to initiate the reaction. Spin and shake. 4. Incubated for 30 min for Class 2A, 1 h for HDAC1, 2, 3, and 6, and 2 h for the rest of HDAC isoforms and SIRTs at 30° C. with seal.
5. Added Developer with Trichostatin A (or Nicotinamide for SIRTs) to stop the reaction and to generate fluorescent color. 6. The fluorescence that was generated was detected with excitation (Ex) at […] and emission (Em) at 460 nM by the EnVision Multilabel Plate Reader (PerkinElmer®, Santa Clara, Calif., USA).
IC50 values were derived from a 10-dose response curve. As shown in Tables 1-2, the addition of a linker and CRBN targeting group altered the isoform selectivity of the SAHA-based degrader compounds.

As to `Cc1ncsc1-c1ccc([C@H](C)NC(=O)[C@@H]2C[C@@H](O)CN2C(=O)[C@@H](NC(=O)CCOCCOCCN(CCc2c[nH]c3ccccc23)Cc2ccc(/C=C/C(=O)NO)cc2)C(C)(C)C)cc1` [Compound 2, (2S,4R)-1-((S)-14-(tert-butyl)-3-(4-((E)-3-(hydroxyamino)-3-oxoprop-1-en-1-yl)benzyl)-1-(1H-indol-3-yl)-12-oxo-6,9-dioxa-3,13-diazapentadecan-15-oyl)-4-hydroxy-N—((S)-1-(4-(4-methylthiazol-5-yl)phenyl)ethyl)pyrrolidine-2-carboxamide], the “inhibition of HDAC6 activity in vitro (in words)” value was “potently inhibited”. Moreover, the IC50 (usually the midpoint of a concentration-inhibition curve) (10-dose response curve, read-out: Compound IC50 (M), HDAC6) turned out to be 7.85e-08 M.
